# According to patent US20240173344A1, “USE OF GABAA RECEPTOR AS TARGET IN PREPARATION OR SCREENING OF DRUG FOR LOWERING BLOOD LIPID LEVEL, TREATING OBESITY, AND/OR IMPROVING METABOLISM” (SHANGHAI INSTITUTE OF ENDOCRINE AND METABOLIC DISEASES, priority 2022, published 2024):
# Several values for one entry are separate records, joined by “and”; a condition that tells them apart may be missing. Identical values can stand only once.
# Experiments:
# [1] = target: T1, α1 subunit of the GABAA receptor (Gabra1) in the DMV (Mus musculus, UniProt P22723+P62812); experiment: DMV-specific knockdown of Gabra1 to block puerarin in obese mouse model: body weight, blood lipid, jejunal TG, c-fos; type: in vivo, mice; conditions: for Body weight curve change percentage: single mice and mean
# T1 construct: from tissue; host or cells: brainstem DMV of living obese mice
# T1 sequence (P62812 28-455): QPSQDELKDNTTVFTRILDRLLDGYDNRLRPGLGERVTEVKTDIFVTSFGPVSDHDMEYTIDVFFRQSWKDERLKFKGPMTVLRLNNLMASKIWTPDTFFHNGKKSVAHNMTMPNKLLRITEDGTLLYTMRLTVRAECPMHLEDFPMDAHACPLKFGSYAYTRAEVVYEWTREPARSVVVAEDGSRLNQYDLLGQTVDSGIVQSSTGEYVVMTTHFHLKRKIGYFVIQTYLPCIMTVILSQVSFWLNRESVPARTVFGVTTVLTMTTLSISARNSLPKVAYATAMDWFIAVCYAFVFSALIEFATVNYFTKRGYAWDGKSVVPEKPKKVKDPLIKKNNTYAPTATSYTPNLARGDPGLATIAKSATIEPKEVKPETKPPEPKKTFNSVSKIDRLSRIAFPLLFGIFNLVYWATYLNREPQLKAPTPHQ
# T1 sequence (P63080 26-473 partner): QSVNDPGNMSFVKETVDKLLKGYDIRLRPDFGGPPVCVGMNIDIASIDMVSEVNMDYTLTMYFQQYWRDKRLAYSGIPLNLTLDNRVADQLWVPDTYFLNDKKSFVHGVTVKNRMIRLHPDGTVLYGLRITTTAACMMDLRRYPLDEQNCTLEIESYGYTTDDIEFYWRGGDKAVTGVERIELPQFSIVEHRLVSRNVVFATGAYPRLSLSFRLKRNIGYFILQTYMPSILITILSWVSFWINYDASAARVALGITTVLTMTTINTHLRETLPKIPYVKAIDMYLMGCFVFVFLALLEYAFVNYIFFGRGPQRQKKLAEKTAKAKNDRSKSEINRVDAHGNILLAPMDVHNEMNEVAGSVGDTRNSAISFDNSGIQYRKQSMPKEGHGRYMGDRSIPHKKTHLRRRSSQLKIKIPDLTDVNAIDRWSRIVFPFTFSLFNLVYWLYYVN
# T1 sequence (P22723 39-474): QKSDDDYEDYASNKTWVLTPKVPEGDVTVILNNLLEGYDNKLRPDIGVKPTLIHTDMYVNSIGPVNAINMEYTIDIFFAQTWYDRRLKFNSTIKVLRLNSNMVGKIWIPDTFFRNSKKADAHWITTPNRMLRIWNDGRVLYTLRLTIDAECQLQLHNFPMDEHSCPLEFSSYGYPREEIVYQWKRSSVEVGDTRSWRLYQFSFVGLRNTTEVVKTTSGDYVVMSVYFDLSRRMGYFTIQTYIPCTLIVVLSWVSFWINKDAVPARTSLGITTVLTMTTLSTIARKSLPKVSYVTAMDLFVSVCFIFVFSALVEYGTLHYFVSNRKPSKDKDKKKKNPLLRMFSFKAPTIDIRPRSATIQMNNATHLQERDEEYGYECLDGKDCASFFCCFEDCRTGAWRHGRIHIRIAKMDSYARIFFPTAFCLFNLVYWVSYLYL
# GABAA (α1β3γ2) receptor = target: T2, GABAA (α1β3γ2) receptor (Homo sapiens, UniProt P14867+P18507); experiment: Bioelectric signal of 293S cell line with GABA and puerarin co-incubation; type: cell-based; conditions: 0.5 μM GABA co-incubated with puerarin for 3 min to 5 min
# T2 construct: expressed in transfected cells
# T2 sequence (P14867 28-456): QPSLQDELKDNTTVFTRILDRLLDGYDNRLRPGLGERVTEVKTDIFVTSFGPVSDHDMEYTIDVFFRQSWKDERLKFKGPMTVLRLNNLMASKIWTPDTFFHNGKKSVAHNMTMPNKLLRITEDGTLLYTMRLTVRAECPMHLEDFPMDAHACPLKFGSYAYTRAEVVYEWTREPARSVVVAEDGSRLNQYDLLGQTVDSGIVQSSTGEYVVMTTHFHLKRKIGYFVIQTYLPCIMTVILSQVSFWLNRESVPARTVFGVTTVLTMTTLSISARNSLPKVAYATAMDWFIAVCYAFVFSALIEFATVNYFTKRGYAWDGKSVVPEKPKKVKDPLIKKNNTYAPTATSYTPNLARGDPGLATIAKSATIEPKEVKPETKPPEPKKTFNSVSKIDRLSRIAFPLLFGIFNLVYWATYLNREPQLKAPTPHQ
# T2 sequence (P28472 26-473 partner): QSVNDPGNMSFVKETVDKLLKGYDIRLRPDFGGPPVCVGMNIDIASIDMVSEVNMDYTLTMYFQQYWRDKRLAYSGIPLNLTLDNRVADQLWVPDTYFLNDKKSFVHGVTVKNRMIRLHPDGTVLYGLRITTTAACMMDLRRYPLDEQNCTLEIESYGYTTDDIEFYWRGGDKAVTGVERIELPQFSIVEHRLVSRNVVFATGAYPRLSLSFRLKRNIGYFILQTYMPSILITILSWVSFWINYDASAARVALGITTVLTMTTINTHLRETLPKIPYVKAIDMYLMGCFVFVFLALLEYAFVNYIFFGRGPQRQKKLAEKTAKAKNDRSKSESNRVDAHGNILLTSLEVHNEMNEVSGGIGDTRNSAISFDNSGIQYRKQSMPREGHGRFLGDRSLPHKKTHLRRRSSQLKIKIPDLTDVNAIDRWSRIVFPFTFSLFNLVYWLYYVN
# T2 sequence (P18507 40-475): as the sequence (P22723 39-474) above
# neurons in the DMV = experiment: Electrophysiological whole-cell patch-clamp recording of brain slices; type: cell-based; conditions: during puerarin incubation (concentration: 10 mM), current clamp, brain slices of obese mice
# Method: Obese mouse models fed with a high-fat feed for 12 weeks were taken and myocardially perfused with an artificial cerebrospinal fluid (ACSF), and 200 μm to 300 μm-thick brainstem tissue slices were prepared by vibration slicing; and brain slices were incubated in oxygen at 35° C. for 1 h and then transferred to a patch-clamp system for whole-cell patch-clamp recording. Recorded neurons were selected according to the cellular morphology in the DMV, and a green-fluorescent dye was added to a pipette solution to label cells.
# obese mouse model = experiment: Intraperitoneal puerarin for 20 d in high-fat-diet obese mouse model: body weight, blood lipid, jejunal TG, c-fos staining, oil red O staining; type: in vivo, C57BL/6J mice; conditions: brain slice c-fos immunofluorescence, puerarin i.p. 20 d vs control group
# Method: The C57BL/6J mice were used as experimental mice in the present disclosure. The experimental mice each were raised in an SPF-level environment at 22° C. to 24° C. with a 12:12 circadian rhythm, and the experimental mice each were subjected to anaesthesia, analgesia, surgery, intraperitoneal injection, and other experimental operations in accordance with the relevant provisions of animal ethics.
# In the present disclosure, the mice were fed with a high-fat diet in which a mass percentage of fat was 60% for 12 weeks, and when a body weight reached 35 g or more, animal models of alimentary obesity were successfully constructed. At a formal stage of the experiment (starting on day 0 in FIG. 1A, FIG. 3A, FIG. 6A, and FIG. 7A), the mice were raised in single cages, during which a daily food intake of each mouse model was accurately recorded, the feces was collected before and after drug intervention, and a daily body weight curve was recorded.
# A method for determining TG in a sample was as follows: 20 mg to 30 mg of a sample was first weighed, a 5% NP40-containing lysis buffer was added, and a resulting mixture was homogenated and incubated in a metal bath at 95° C. for 5 min, which was repeated twice. […] 2 μl of the supernatant was added to each well, and after a chromogenic reaction was completed, a value of each well was determined by a microplate reader. […]
# [2] = target: T3, γ2 subunit of the GABAA receptor (Gabrg2) in the DMV (Mus musculus, UniProt P22723+P62812); experiment: DMV-specific knockdown of Gabrg2 to block puerarin in obese mouse model: body weight, blood lipid, jejunal TG, c-fos; type: in vivo, mice; conditions: for Body weight curve change percentage / Jejunal TG level / Blood lipid level: single mice and mean
# T3 construct: from tissue; host or cells: brainstem DMV of living obese mice
# T3 sequence (P22723 39-474): as above
# T3 sequence (P62812 28-455): as the sequence (P62812 28-455) above
# T3 sequence (P63080 26-473 partner): as the sequence (P63080 26-473 partner) above
# Method: A method for determining TG in a sample was as follows: 20 mg to 30 mg of a sample was first weighed, a 5% NP40-containing lysis buffer was added, and a resulting mixture was homogenated and incubated in a metal bath at 95° C. for 5 min, which was repeated twice. A resulting homogenate was cooled to room temperature and then centrifuged at 15,000 rpm for 2 min to 3 min, and a resulting supernatant was pipetted for determination. A Biovision kit was used to determine TG. 2 μl of the supernatant was added to each well, and after a chromogenic reaction was completed, a value of each well was determined by a microplate reader. TG in the small intestinal tissue was quantified through a standard protein concentration; and a total amount of lipids excreted with the feces was calculated based on a measured value of the feces sample and a total mass of the sample at 24 h.
# Similar to the above experiment, the rAAV-DIO-Gabrg2-shRNA (BrainVTA, China) was used to knock down Gabrg2 (a gene encoding the γ2 subunit of the GABAA receptor) in the DMV in an obese mouse model, and the rAAV-DIO-mCherry (BrainVTA, China) was used as a control group.
# [3] = target: T4, GABAA receptor in the DMV (Mus musculus, UniProt P22723+P62812); experiment: Colocalization staining of puerarin probe with GABAA receptor on brain slices; conditions: brain slice tissue, immunofluorescence staining
# T4 construct: from tissue; host or cells: brain slice tissue (DMV)
# T4 sequence (P62812 28-455): as the sequence (P62812 28-455) above
# T4 sequence (P63080 26-473 partner): as the sequence (P63080 26-473 partner) above
# T4 sequence (P22723 39-474): as the sequence (P22723 39-474) above
# [4] = Puerarin group (control virus in DMV, puerarin i.p. daily), Day 0 baseline
# [5] = Puerarin group vs control group
# [6] = Puerarin group (control virus, puerarin i.p. 7 d)
# [7] = Puerarin group (control virus, puerarin i.p. 7 d), mean
compound,measurement,setting,value
"O=c1c(-c2ccc(O)cc2)coc2c([C@@H]3O[C@H](CO)[C@@H](O)[C@H](O)[C@H]3O)c(O)ccc12 [Puerarin, puerarin]",Body weight curve change percentage,"[1]; Gα1 blocking group (Gabra1 shRNA virus in DMV, puerarin i.p. daily), Day 0 baseline",0.00%
same,Body weight curve change percentage,"[1]; Gα1 blocking group (Gabra1 shRNA virus, puerarin i.p. daily), Day 2",0.70% and 0.68% and 0.80% and 0.69% and 1.06% and 0.91% and 0.82% and 0.83%
same,c-fos staining of brain slices (DMV),"[1]; Gα1 blocking group (tissue-specific knockdown of Gabra1, puerarin i.p.)",would intervene in the inhibitory effect of puerarin on neurons in the DMV
same,Body weight curve change percentage,[1]; [4],0.00%
same,c-fos staining of brain slices (DMV),[1]; [5],less than that of the control group
same,Chloride influx / bioelectric signal change,GABAA (α1β3γ2) receptor,"increased chloride ions would enter cells, causing hyperpolarization"
same,Action potential discharge frequency of neurons in the DMV,neurons in the DMV,significantly reduced
same,Membrane potential of neurons in the DMV,neurons in the DMV,slightly lower than the initial baseline
same,Number of c-fos fluorescence signals in the DMV brain region,obese mouse model,smaller than that in the control group
same,Body weight curve change percentage,"[2]; Gγ2 blocking group (Gabrg2 shRNA virus in DMV, puerarin i.p. daily), Day 0 baseline",0.00%
same,Jejunal TG level,"[2]; Gγ2 blocking group (Gabrg2 shRNA virus, puerarin i.p. 7 d)",1.1912 μmol/mg/protein and 1.5075 μmol/mg/protein and 1.6522 μmol/mg/protein and 1.1566 μmol/mg/protein and 1.0093 μmol/mg/protein
same,Jejunal TG level,"[2]; Gγ2 blocking group (Gabrg2 shRNA virus, puerarin i.p. 7 d), mean",1.3034 μmol/mg/protein
same,Body weight curve change percentage,"[2]; Gγ2 blocking group (Gabrg2 shRNA virus, puerarin i.p. daily), Day 1",0.82% and 0.55% and −0.82% and −0.55% and 0.79%
same,Body weight curve change percentage,"[2]; Gγ2 blocking group (Gabrg2 shRNA virus, puerarin i.p. daily), Day 1, mean",0.16%
same,Body weight curve change percentage,"[2]; Gγ2 blocking group (Gabrg2 shRNA virus, puerarin i.p. daily), Day 2",1.37% and −0.28% and 0.27% and 0.54% and −0.81%
same,Body weight curve change percentage,"[2]; Gγ2 blocking group (Gabrg2 shRNA virus, puerarin i.p. daily), Day 2, mean",0.22%
same,Body weight curve change percentage,"[2]; Gγ2 blocking group (Gabrg2 shRNA virus, puerarin i.p. daily), Day 3",0.55% and −1.13% and 0.54% and 1.08% and 1.57%
same,Body weight curve change percentage,"[2]; Gγ2 blocking group (Gabrg2 shRNA virus, puerarin i.p. daily), Day 3, mean",0.52%
same,Body weight curve change percentage,"[2]; Gγ2 blocking group (Gabrg2 shRNA virus, puerarin i.p. daily), Day 4",0.28% and −1.41% and 0.80% and 1.60% and 1.06%
same,Body weight curve change percentage,"[2]; Gγ2 blocking group (Gabrg2 shRNA virus, puerarin i.p. daily), Day 4, mean",0.47%
same,Body weight curve change percentage,"[2]; Gγ2 blocking group (Gabrg2 shRNA virus, puerarin i.p. daily), Day 5",0.55% and −0.56% and 2.62% and 3.41% and 0.79%
same,Body weight curve change percentage,"[2]; Gγ2 blocking group (Gabrg2 shRNA virus, puerarin i.p. daily), Day 5, mean",1.36%
same,Body weight curve change percentage,"[2]; Gγ2 blocking group (Gabrg2 shRNA virus, puerarin i.p. daily), Day 6",0.55% and −0.56% and 2.62% and 3.41% and 1.83%
same,Body weight curve change percentage,"[2]; Gγ2 blocking group (Gabrg2 shRNA virus, puerarin i.p. daily), Day 6, mean",1.57%
same,Body weight curve change percentage,"[2]; Gγ2 blocking group (Gabrg2 shRNA virus, puerarin i.p. daily), Day 7",0.82% and 0.00% and 2.37% and 3.16% and 2.09%
same,Body weight curve change percentage,"[2]; Gγ2 blocking group (Gabrg2 shRNA virus, puerarin i.p. daily), Day 7, mean",1.69%
same,c-fos staining signal of neurons in the DMV,"[2]; Gγ2 blocking group (tissue-specific knockdown of Gabrg2, puerarin i.p.)",could intervene in the inhibitory effect of puerarin on neurons in the DMV
same,Body weight curve change percentage,[2]; [4],0.00%
same,Blood lipid level,[2]; [6],0.6408 mM and 0.7143 mM and 0.8673 mM and 0.7337 mM and 0.7380 mM
same,Jejunal TG level,[2]; [6],0.9191 μmol/mg/protein and 0.8860 μmol/mg/protein and 0.8466 μmol/mg/protein and 0.9139 μmol/mg/protein and 0.7516 μmol/mg/protein
same,Blood lipid level,[2]; [7],0.7388 mM
same,Jejunal TG level,[2]; [7],0.8634 μmol/mg/protein
same,Body weight curve change percentage,"[2]; Puerarin group (control virus, puerarin i.p. daily), Day 1",−1.10% and −1.06% and −0.81% and −0.79% and 0.82%
same,Body weight curve change percentage,"[2]; Puerarin group (control virus, puerarin i.p. daily), Day 1, mean",−0.59%
same,Body weight curve change percentage,"[2]; Puerarin group (control virus, puerarin i.p. daily), Day 2",−0.82% and −1.60% and −0.81% and −1.06% and −1.11%
same,Body weight curve change percentage,"[2]; Puerarin group (control virus, puerarin i.p. daily), Day 2, mean",−1.08%
same,Body weight curve change percentage,"[2]; Puerarin group (control virus, puerarin i.p. daily), Day 3",−2.50% and −0.53% and −2.20% and −1.33% and −1.68%
same,Body weight curve change percentage,"[2]; Puerarin group (control virus, puerarin i.p. daily), Day 3, mean",−1.65%
same,Body weight curve change percentage,"[2]; Puerarin group (control virus, puerarin i.p. daily), Day 4",−3.07% and −2.14% and −2.76% and −1.87% and −0.83%
same,Body weight curve change percentage,"[2]; Puerarin group (control virus, puerarin i.p. daily), Day 5",−4.83% and −2.97% and −1.64% and −5.20%
same,Body weight curve change percentage,"[2]; Puerarin group (control virus, puerarin i.p. daily), Day 5, mean",−3.52%
same,Body weight curve change percentage,"[2]; Puerarin group (control virus, puerarin i.p. daily), Day 6",−5.13% and −4.10% and −3.05% and −5.54% and −3.41%
same,Body weight curve change percentage,"[2]; Puerarin group (control virus, puerarin i.p. daily), Day 6, mean",−4.24%
same,Body weight curve change percentage,"[2]; Puerarin group (control virus, puerarin i.p. daily), Day 7",−6.34% and −4.96% and −3.33% and −5.54% and −3.41%
same,Body weight curve change percentage,"[2]; Puerarin group (control virus, puerarin i.p. daily), Day 7, mean",−4.72%
same,c-fos staining signal of neurons in the DMV,[2]; [5],inhibited by puerarin
same,Distribution of puerarin probe and colocalization with GABAA receptor staining,[3],enriched in the DMV and showed prominent colocalization with staining of the GABAA receptor
